Experimental data published in patent publication US8642590B2, “Alkylcyclohexylethers of dihydrotetraazabenzoazulenes” (Hoffmann-La Roche Inc., priority 2008, dated 2014).
Structures can show the parent of a compound that is named as a salt.

What follows are compounds tested against T1, human V1a receptor (Homo sapiens, UniProt P37288) (assay: human V1a receptor binding study (3H-Vasopressin, SPA beads, HEK293 membranes)). Settings: not given.
T1 construct: expressed in transfected cells; host or cells: HEK293 cells, transiently transfected; cell membranes prepared
T1 sequence (P37288 whole entry): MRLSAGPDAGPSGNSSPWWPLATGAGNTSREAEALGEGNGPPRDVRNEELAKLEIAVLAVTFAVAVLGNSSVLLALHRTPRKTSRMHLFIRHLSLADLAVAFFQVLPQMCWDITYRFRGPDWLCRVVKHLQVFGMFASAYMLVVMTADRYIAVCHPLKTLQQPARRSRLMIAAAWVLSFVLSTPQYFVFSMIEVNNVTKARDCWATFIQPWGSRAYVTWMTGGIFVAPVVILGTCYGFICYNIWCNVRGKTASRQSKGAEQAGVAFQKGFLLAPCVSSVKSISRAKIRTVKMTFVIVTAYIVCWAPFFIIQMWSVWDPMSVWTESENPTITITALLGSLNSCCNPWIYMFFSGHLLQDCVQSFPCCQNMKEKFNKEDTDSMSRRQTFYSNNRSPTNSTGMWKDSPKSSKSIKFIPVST
Description: The human V1a receptor was cloned by RT-PCR from total human liver RNA. The coding sequence was subcloned in an expression vector after sequencing to confirm the identity of the amplified sequence. […] Cell membranes were prepared from HEK293 cells transiently transfected with the expression vector and grown in 20 liter fermenters with the following protocol.
50 g of cells are resuspended in 30 ml freshly prepared ice cold Lysis buffer (50 mM HEPES, 1 mM EDTA, 10 mM magnesium dichloride adjusted to pH=7.4+complete cocktail of protease inhibitor (Roche Diagnostics)). Homogenized with Polytron for 1 min and sonicated on ice for 2×2 minutes at 80% intensity (Vibracell sonicator). The preparation is centrifuged 20 min at 500 g at 4° C., the pellet is discarded and the supernatant centrifuged 1 hour at 43,000 g at 4° C. (19,000 rpm). The pellet is resuspended in 12.5 ml Lysis buffer+12.5 ml Sucrose 20% and homogenized using a Polytron for 1-2 min. The protein concentration is determined by the Bradford method and aliquots are stored at −80° C. until use. For binding studies 60 mg Yttrium silicate SPA beads (Amersham) are mixed with an aliquot of membrane in binding buffer (50 mM Tris, 120 mM sodium chloride, 5 mM potassium chloride, 2 mM Calcium dichloride, 10 mM magnesium dichloride) for 15 minutes with mixing. 50 μl of bead/membrane mixture is then added to each well of a 96 well plate, followed by 50 μl of 4 nM 3H-Vasopressin (American Radiolabeled Chemicals). For total binding measurement 100 μl of binding buffer are added to the respective wells, for non-specific binding 100 μl of 8.4 mM cold vasopressin and for compound testing 100 μl of a serial dilution of each compound in 2% dimethyl sulfoxide. The plate is incubated 1 h at room temperature, centrifuged 1 min at 1000 g and counted on a Packard Top-Count. Non-specific binding counts are subtracted from each well and data is normalized to the maximum specific binding set at 100%. To calculate an IC 50 the curve is fitted using a non-linear regression model (XLfit) and the Ki is calculated using the Cheng-Prussoff equation.

Structure (SMILES) | Ki
CC(C)(C)OC(=O)N1Cc2cc(Cl)ccc2-n2c(nnc2[C@H]2CC[C@H](OC3COC3)CC2)C1 [Example 57, trans-8-Chloro-1-[4-(oxetan-3-yloxy)-cyclohexyl]-4H,6H-2,3,5,10b-tetraaza-benzo[e]azulene-5-carboxylic acid tert-butyl ester] | 6.17 nM

Same assay, conditions: membranes of HEK293 cells transiently transfected with human V1a receptor; 3H-Vasopressin; Ki calculated using the Cheng-Prussoff equation; read-out: pKi (hV1a) (converted)

Structure (SMILES) | Ki
CN1Cc2cc(Cl)ccc2-n2c(nnc2[C@H]2CC[C@H](OC3COC3)CC2)C1 [Example 58, trans-8-Chloro-5-methyl-1-[4-(oxetan-3-yloxy)-cyclohexyl]-5,6-dihydro-4H-2,3,5,10b-tetraaza-benzo[e]azulene] | 46.8 nM
CC(C)(C)OC(=O)N1Cc2cc(Cl)ccc2-n2c(nnc2[C@H]2CC[C@H](OC3CCOCC3)CC2)C1 [Example 59, trans-8-Chloro-1-[4-(tetrahydro-pyran-4-yloxy)-cyclohexyl]-4H,6H-2,3,5,10b-tetraaza-benzoazulene-5-carboxylic acid tert-butyl ester] | 5.62 nM
CC(C)(C)OC(=O)N1Cc2cc(Cl)ccc2-n2c(nnc2[C@H]2CC[C@@H](OC3CCOCC3)CC2)C1 [Example 60, cis-8-Chloro-1-[4-(tetrahydro-pyran-4-yloxy)-cyclohexyl]-4H,6H-2,3,5,10b-tetraaza-benzoazulene-5-carboxylic acid tert-butyl ester] | 7.08 nM
Clc1ccc2c(c1)CNCc1nnc([C@H]3CC[C@H](OC4CCOCC4)CC3)n1-2 [Example 61, trans-8-Chloro-1-[4-(tetrahydro-pyran-4-yloxy)-cyclohexyl]-5,6-dihydro-4H-2,3,5,10b-tetraaza-benzoazulene hydrochloride] | 447 nM
CN1Cc2cc(Cl)ccc2-n2c(nnc2[C@H]2CC[C@H](OC3CCOCC3)CC2)C1 [Example 62, trans-8-Chloro-5-methyl-1-[4-(tetrahydro-pyran-4-yloxy)-cyclohexyl]-5,6-dihydro-4H-2,3,5,10b-tetraaza-benzoazulene] | 20 nM
Clc1ccc2c(c1)CNCc1nnc([C@H]3CC[C@@H](OC4CCOCC4)CC3)n1-2 [Example 63, cis-8-Chloro-1-[4-(tetrahydro-pyran-4-yloxy)-cyclohexyl]-5,6-dihydro-4H-2,3,5,10b-tetraaza-benzoazulene hydrochloride] | 288 nM
CN1Cc2cc(Cl)ccc2-n2c(nnc2[C@H]2CC[C@@H](OC3CCOCC3)CC2)C1 [Example 64, cis-8-Chloro-5-methyl-1-[4-(tetrahydro-pyran-4-yloxy)-cyclohexyl]-5,6-dihydro-4H-2,3,5,10b-tetraaza-benzoazulene] | 17 nM
CC(C)(C)OC(=O)N1Cc2cc(Cl)ccc2-n2c(nnc2[C@H]2CC[C@H](OC(F)(F)F)CC2)C1 [Example 65, trans-8-Chloro-1-(4-trifluoromethoxy-cyclohexyl)-4H,6H-2,3,5,10b-tetraaza-benzo[e]azulene-5-carboxylic acid tert-butyl ester] | 14.5 nM
FC(F)(F)O[C@H]1CC[C@H](c2nnc3n2-c2ccc(Cl)cc2CNC3)CC1 [Example 66, trans-8-Chloro-1-(4-trifluoromethoxy-cyclohexyl)-5,6-dihydro-4H-2,3,5,10b-tetraaza-benzo[e]azulene hydrochloride] | 195 nM
CN1Cc2cc(Cl)ccc2-n2c(nnc2[C@H]2CC[C@H](OC(F)(F)F)CC2)C1 [Example 67, trans-8-Chloro-5-methyl-1-(4-trifluoromethoxy-cyclohexyl)-5,6-dihydro-4H-2,3,5,10b-tetraaza-benzo[e]azulene] | 26.3 nM
CC(C)(C)OC(=O)N1Cc2cc(Cl)ccc2-n2c(nnc2[C@H]2CC[C@H](OC(C)(C)C)CC2)C1 [Example 68, trans-1-(4-tert-Butoxy-cyclohexyl)-8-chloro-4H,6H-2,3,5,10b-tetraaza-benzo[e]azulene-5-carboxylic acid tert-butyl ester] | 3.8 nM
